In the supplement of paper PMC6045584:
± gives the standard deviation of the averaged measurements.

Columns and labels:
[1] = compound: Cn1cc(C2=Nc3cc(NC(=O)C(N)C4CCCCC4)cc4c3C2=CNNC4=O)cn1; assay: surviving fraction relative to DMSO-only wells; higher = less growth inhibition; conditions: exposure time: 5 days
Summary of the method: (§1)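 Inhibitors at 0.5, 1, 5, 10, 50, 100, 500 and 1000 nM were applied continuously for five days to tumour cell lines seeded in log phase at 250–500 cells per well in 384-well plates 24 hours earlier. Viability was measured by CellTiter-Glo luminescence and expressed as surviving fraction relative to the median of DMSO-only wells. Luminescence was taken after 10 minutes at room temperature.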

MDV3100 = compound: CNC(=O)c1ccc(N2C(=S)N(c3ccc(C#N)c(C(F)(F)F)c3)C(=O)C2(C)C)cc1F [MDV3100]; assay: as above; conditions: exposure time: 5 days
Summary of the method: as §1

Row | Test System | surviving fraction ([1]; 0.5 nM) | surviving fraction ([1]; 1 nM) | surviving fraction ([1]; 5 nM) | surviving fraction ([1]; 10 nM) | surviving fraction ([1]; 50 nM) | surviving fraction ([1]; 100 nM) | surviving fraction ([1]; 500 nM) | surviving fraction ([1]; 1000 nM) | surviving fraction (MDV3100; 0.5 nM) | surviving fraction (MDV3100; 1 nM) | surviving fraction (MDV3100; 5 nM) | surviving fraction (MDV3100; 10 nM) | surviving fraction (MDV3100; 50 nM) | surviving fraction (MDV3100; 100 nM) | surviving fraction (MDV3100; 500 nM) | surviving fraction (MDV3100; 1000 nM)
1 | CAL120 BREAST | 0.966 ± 0.012 | 1.02 ± 0.019 | 1.01 ± 0.013 | 1.01 ± 0.038 | 0.966 ± 0.029 | 0.856 ± 0.044 | 0.375 ± 0.02 | 0.24 ± 0.023 | 0.906 ± 0.066 | 0.905 ± 0.025 | 0.931 ± 0.051 | 0.925 ± 0.077 | 0.941 ± 0.058 | 0.935 ± 0.042 | 0.953 ± 0.059 | 0.955 ± 0.025
2 | MDAMB436 BREAST | 0.847 ± 0.079 | 0.911 ± 0.097 | 0.871 ± 0.05 | 0.852 ± 0.11 | 0.813 ± 0.051 | 0.577 ± 0.031 | 0.284 ± 0.02 | 0.228 ± 0.011 | 0.965 ± 0.086 | 0.884 ± 0.076 | 0.9783 ± 0.0076 | 0.95 ± 0.024 | 0.999 ± 0.1 | 0.9082 ± 0.0022 | 0.925 ± 0.083 | 0.86 ± 0.036
3 | SG27 HEADNECK | 1.11 ± 0.17 | 0.979 ± 0.096 | 0.898 ± 0.059 | 1.01 ± 0.022 | 0.904 ± 0.12 | 0.917 ± 0.18 | 0.895 ± 0.042 | 0.839 ± 0.035 | 1.064 ± 0.0067 | 1.01 ± 0.12 | 1.07 ± 0.13 | 0.935 ± 0.091 | 1.09 ± 0.04 | 1.19 ± 0.081 | 1.21 ± 0.2 | 1.17 ± 0.19
4 | MDAMB134 BREAST | 0.9005 ± 0.0064 | 0.987 ± 0.062 | 0.908 ± 0.092 | 0.855 ± 0.17 | 0.642 ± 0.067 | 0.525 ± 0.14 | 0.442 ± 0.033 | 0.505 ± 0.018 | 0.813 ± 0.09 | 0.82 ± 0.1 | 0.894 ± 0.2 | 0.918 ± 0.0099 | 1.06 ± 0.15 | 0.794 ± 0.033 | 1.17 ± 0.018 | 0.992 ± 0.25
5 | HCC78 LUNG | 0.91 ± 0.095 | 1.13 ± 0.26 | 0.993 ± 0.07 | 1.03 ± 0.17 | 0.887 ± 0.11 | 0.471 ± 0.29 | 0.0453 ± 0.011 | 0.0623 ± 0.013 | 0.976 ± 0.13 | 0.75 ± 0.27 | 1.03 ± 0.11 | 0.972 ± 0.14 | 0.799 ± 0.14 | 0.925 ± 0.092 | 0.664 ± 0.045 | 0.451 ± 0.051
6 | 143B BONE | 0.981 ± 0.052 | 1.01 ± 0.029 | 0.992 ± 0.033 | 1.0045 ± 0.00071 | 0.96 ± 0.052 | 1 ± 0.035 | 0.303 ± 0.0042 | 0.036 ± 0.0014 | 1.07 ± 0.061 | 1.1 ± 0.1 | 1.09 ± 0.086 | 1.09 ± 0.088 | 1.13 ± 0.12 | 1.13 ± 0.11 | 1.11 ± 0.11 | 1.1 ± 0.093
7 | SJSA1 BONE | 1.023 ± 0.0096 | 0.984 ± 0.02 | 1.01 ± 0.061 | 1.06 ± 0.036 | 1.03 ± 0.021 | 1.006 ± 0.0057 | 0.526 ± 0.044 | 0.337 ± 0.018 | 0.471 ± 0.053 | 1.27 ± 0.084 | 1.43 ± 0.11 | 0.332 ± 0.037 | 0.0403 ± 0.0031 | 1.49 ± 0.034 | 0.0293 ± 0.0025 | 1.49 ± 0.023
8 | SG32 HEADNECK | 1.12 ± 0.29 | 1.13 ± 0.1 | 1.14 ± 0.091 | 1.12 ± 0.14 | 0.881 ± 0.065 | 0.774 ± 0.19 | 0.273 ± 0.099 | 0.222 ± 0.087 | 1.21 ± 0.56 | 0.976 ± 0.13 | 0.988 ± 0.033 | 0.794 ± 0.073 | 1.16 ± 0.17 | 1 ± 0.3 | 1.01 ± 0.044 | 1.09 ± 0.26
9 | SG28 HEADNECK | 0.971 ± 0.052 | 1.04 ± 0.14 | 0.991 ± 0.044 | 1.01 ± 0.047 | 0.83 ± 0.029 | 0.661 ± 0.022 | 0.427 ± 0.012 | 0.317 ± 0.026 | 1.19 ± 0.035 | 1.06 ± 0.0078 | 1.02 ± 0.086 | 0.762 ± 0.034 | 0.949 ± 0.062 | 1.01 ± 0.06 | 1.11 ± 0.067 | 0.946 ± 0.13
